Data set [1] can be described thus: NMR 13C-isotopomer profiling of TCA extracts of paired non-cancerous and cancerous lung tissues. The conditions noted are these: for % enrichment: human, in vivo; for relative 13C abundance (HSQC peak volume normalized to total succinate concentration): patients #6-10. On the procedure:
Lung cancer patients were recruited based on the criteria of surgical eligibility and no history of diabetes. Each patient was consented in accordance with the U.S. HIPAA regulations. The following patient protocol was approved by the Internal Review Board at the University of Louisville. Ten grams uniformly ^13C labeled glucose ([U-^13C]-Glc or ^13C6-Glc or ^13C6-Glucose) in sterile saline solution were infused i.v. over a 30 min time period into each patient in the pre-op room approximately 3 or 12 hr prior to resection. Whole blood samples were collected into a vacutainer containing the anticoagulant K3EDTA or K3-EDTA before and after [U-^13C]-Glc infusion as well as after the surgery. Additional blood samples were collected 3 and 12 hr after the [U-^13C]-Glc infusion for the 12 hr treatment cases. […] The blood samples were placed on ice immediately after collection and centrifuged at 4° C. at 3,500×g for 15 min to recover the plasma fraction. All blood samples were aliquoted and flash-frozen in liquid N2 within 30 min of collection. Potassium EDTA was used as an anti-coagulant to minimize metabolic artifacts associated with anti-coagulation; it also served to remove the influence of interfering cations such as paramagnetic Fe^3+ and Cu^2+ for NMR analysis.
All timings from first incision to cutting arteries and veins to the lung were recorded so that the period of ischemia could be determined immediately after tissue resection, excess blood was blotted from the tissue, and small pieces of non-cancerous and tumor tissue were cut by the surgeon and freeze-clamped in liquid N2 within 5 minutes of removal from the chest cavity. The freezing process arrested metabolic changes almost instantaneously. […] Non-cancerous tissue was removed at least 2 cm from the tumor margin and certified to be tumor-free by trained pathologists. Subsequent pathological evaluation also confirmed tumor status and provided the tumor stage. All samples were stored at −80° C. until further processing for analysis.
Frozen tissue samples were pulverized into <10 μm particles in liquid N2 using a Spex freezer mill (Spex CertiPrep, Inc., Metuchen, N.J.) to maximize efficiency for subsequent extraction while maintaining biochemical integrity. An aliquot of the frozen powder was lyophilized before extraction for metabolites.
Water-soluble or polar metabolites were extracted from lyophilized tissue powders (4-48 mg) in ice-cold 10% trichloroacetic acid (TCA) (v/w minimum 40/1) while leaving proteins, nucleic acids, and polysaccharides behind, as described previously (Kim et al. Antioxidants & Redox Signaling 2001, 3:361-373). The extraction was performed twice for quantitative recovery. An aliquot (150 μl) of plasma samples were made to final 10% TCA concentration to precipitate proteins and recover metabolites in the supernatant. TCA was then removed from tissue or plasma extracts by lyophilization. The dry pellet was dissolved in nanopure water and two small aliquots were lyophilized for silylation and GC-MS analysis while the remaining bulk was passed through a Chelex 100 resin column (Bio-Rad Laboratories, Inc., Hercules, Calif.) to neutralize and remove interfering multivalent cations for NMR analysis.
The ^1H reference standard, DSS (2,2-Dimethyl-2-silapentane-5-sulfonate sodium salt) was added (30 or 50 nmoles) to the TCA extracts of tissue or plasma samples, respectively. […]

Data set [2] in a line: GC-MS quantification of total and 13C-enriched metabolites in paired normal and cancerous lung tissues.
Data set [3] can be described thus: Isotopic enrichment in SCID mouse tissue lactate and glucose by 1D 1H NMR. The note with it: SCID, mouse, in vivo, 15 min. Format: in vivo. The protocol:
A 20% solution of glucose in normal saline was sterile-filtered. 100 μL of this solution, or a 1:10 dilution (2%) were injected into the tail vein of a restrained mouse without anesthesia.
Mice were sacrificed at different times post glucose injection, and the following organs were dissected sequentially: lung, heart, liver, kidney, brain, spleen, and thigh muscle. Dissected tissue was flash frozen in liquid N2 within 1 minute of killing the animal.
Frozen tissues were ground in liquid N2 to <10 μm particles in a 6750 Freezer/Mill (Retsch, Inc., Newtown, Pa.) and extracted for soluble and lipidic metabolites as follows. Up to 20 mg of frozen tissue powder in 15 ml polypropylene conical centrifuge tube (Sarstedt, Newton, N.C.) containing 3 mm diameter glass beads was vigorously mixed with 2 ml of cold acetonitrile (mass spectrometry grade, stored at −20° C.) to denature proteins, followed by addition of 1.5 ml nanopure water, and 1 ml HPLC-grade chloroform (Fisher Scientific). The mixture was shaken vigorously until achieving a milky consistency followed by centrifugation at 3,000 g for 20 minutes at 4° C. to separate the polar (top), lipidic (bottom), and tissue debris layers (interface). The polar and lipidic layers were recovered sequentially and the remaining cell debris was extracted again with 0.5 ml chloroform:methanol:butylated hydroxytoluene (BHT) (2:1:1 mM) which was pooled with the lipidic fraction. All three fractions were vacuum-dried in a speedvac device (Vacufuge, Eppendorf, New York, N.Y.) and/or by lyophylization. The dry weight of tissue debris was obtained for normalization of metabolite content. The polar extracts were redissolved in 100% D2O containing 30 nmol perdeuterated DSS (2,2-dimethyl-2-silapentane-5-sulfonate, Cambridge Isotope Laboratories, Andover, Mass.) as internal chemical shift and concentration reference for NMR measurement.
NMR spectra were recorded at 14.1 T on a Varian Inova spectrometer equipped with a 5 mm inverse triple resonance cold probe, at 20° C. 1D NMR spectra were recorded with an acquisition time of 2 s and a recycle time of 5 sec. Concentrations of metabolites and ^13C incorporation were determined by peak integration of the ^1H NMR spectra referenced to the DSS methyl groups, with correction for differential relaxation, as previously described (See, Lane et al. (2008) Biophysical Tools for Biologists. 84: 541-588; Fan et al. (2008) Progress in NMR Spectroscopy 52: 69-117; Lane et al. (2007) Metabolomics 3: 79-86.). ^1H Spectra were typically processed with zero filling to 131 k points, and apodized with an unshifted Gaussian and a 0.5 Hz line broadening exponential.
The same extracts from FIG. 9 were analyzed by NMR to complement the GC-MS analysis. The ^13C enrichment into glucose/glucose-6-phosphate and lactate was determined by 1D ^1H NMR. The enrichments at 15 and 30 minutes post infusion were substantial in all tissues, and peak lactate enrichments differed according to the metabolic activity or glucose uptake rates of the different tissues (Table 7).
Lac measured at C3, G1c measured at C1α by NMR

Setting [4] is: patient #6 (sqC, grade II), cancer tissue.
The mark [5] stands for this setting: patient #6 (sqC, grade II), normal tissue.
[6] abbreviates: patient #7 (adenoC, grade II), cancer tissue.
Setting [7] is: patient #7 (adenoC, grade II), normal tissue.
Setting [8] is: patient #8 (sqC, grade II-III), cancer tissue.
Where [9] appears, read: patient #8 (sqC, grade II-III), normal tissue.
[10] abbreviates: patient #9 (sqC, grade II), cancer tissue.
Setting [11] is: patient #9 (sqC, grade II), normal tissue.
Where [12] appears, read: patient #10 (sqC, grade III), cancer tissue.
The mark [13] stands for this setting: patient #10 (sqC, grade III), normal tissue.

From US20120237937A1, “METHODS TO DETECT CANCER IN ANIMALS” (UNIVERSITY OF LOUISVILLE RESEARCH FOUNDATION, INC., priority 2009, published 2012) come the findings set out here.

Structures can show the parent of a compound that is named as a salt.

Consider `N[C@@H](CC(=O)O)C(=O)O` [Total Asp, aspartate], for which the “% enrichment” value in data set [1] was less than 8%. In addition, the “metabolite content of lung tissue” value in data set [2] (setting [4]) is listed as 4.27 μmole/g dry weight; in data set [2] (setting [5]) it was 1.32 μmole/g dry weight; in data set [2] (setting [6]), 3.09 μmole/g dry weight; in data set [2] (setting [7]), 3.83 μmole/g dry weight; in data set [2] (setting [8]), 1.51 μmole/g dry weight; in data set [2] (setting [9]), 2.67 μmole/g dry weight. The “metabolite content of lung tissue” value in data set [2] (setting [10]) worked out at 4.78 μmole/g dry weight; in data set [2] (setting [11]) it was 1.94 μmole/g dry weight; in data set [2] (setting [12]), 1.66 μmole/g dry weight; in data set [2] (setting [13]), 2.27 μmole/g dry weight.

As to `C[C@H](N)C(=O)O` [Total Ala, alanine], the “% enrichment” value in data set [1] was not above 15%. In addition, the “% 13C isotopic enrichment in tissue” value in data set [3] stood at 16%. In addition, the “metabolite content of lung tissue” value in data set [2] (setting [4]) is on record as 15.76 μmole/g dry weight; in data set [2] (setting [5]), 4.67 μmole/g dry weight; in data set [2] (setting [6]), 6.44 μmole/g dry weight; in data set [2] (setting [7]), 6.25 μmole/g dry weight; in data set [2] (setting [8]), 9.28 μmole/g dry weight; in data set [2] (setting [9]), 4.97 μmole/g dry weight. The “metabolite content of lung tissue” value is recorded as 15.08 μmole/g dry weight in data set [2] (setting [10]), 5.14 μmole/g dry weight in data set [2] (setting [11]), 27.34 μmole/g dry weight in data set [2] (setting [12]) and 5.42 μmole/g dry weight in data set [2] (setting [13]).

In the case of `O=C(O)CCC(=O)O` [Total Succ, succinate], the “metabolite content of lung tissue” value in data set [2] (setting [4]) is 1.34 μmole/g dry weight; in data set [2] (setting [5]) it was 0.17 μmole/g dry weight; in data set [2] (setting [6]), 0.70 μmole/g dry weight; in data set [2] (setting [7]), 0.50 μmole/g dry weight; in data set [2] (setting [8]), 1.84 μmole/g dry weight; in data set [2] (setting [9]), 0.89 μmole/g dry weight. The “metabolite content of lung tissue” value in data set [2] (setting [10]) is listed as 1.59 μmole/g dry weight; in data set [2] (setting [11]) it was 0.64 μmole/g dry weight; in data set [2] (setting [12]), 3.13 μmole/g dry weight; in data set [2] (setting [13]) it was 1.14 μmole/g dry weight.

For `O=C(O)[13CH2][13CH2]C(=O)O` [C-2,3-succinate], the figures for the “relative 13C abundance (HSQC peak volume normalized to total succinate concentration)” value in data set [1] (non-cancerous tissues) and in data set [1] (tumor tissues) were 0.6±0.7 and 3.6±1.2, respectively.

Take `O=C(O)CC(O)(CC(=O)O)C(=O)O` [Total Cit, citrate]: the “metabolite content of lung tissue” value worked out at 1.32 μmole/g dry weight in data set [2] (setting [4]); 0.60 μmole/g dry weight in data set [2] (setting [5]); 1.18 μmole/g dry weight in data set [2] (setting [6]); 1.21 μmole/g dry weight in data set [2] (setting [7]); 1.56 μmole/g dry weight in data set [2] (setting [8]); 1.28 μmole/g dry weight in data set [2] (setting [9]). Besides, the “metabolite content of lung tissue” value in data set [2] (setting [10]) stood at 1.53 μmole/g dry weight; in data set [2] (setting [11]), 0.77 μmole/g dry weight; in data set [2] (setting [12]), 1.37 μmole/g dry weight; in data set [2] (setting [13]), 0.74 μmole/g dry weight.

For the compound `N[C@@H](CCC(=O)O)C(=O)O` [Total Glu, glutamate], the “metabolite content of lung tissue” value in data set [2] (setting [4]) was determined as 4.80 μmole/g dry weight; in data set [2] (setting [5]) it was 0.24 μmole/g dry weight; in data set [2] (setting [6]), 2.97 μmole/g dry weight; in data set [2] (setting [7]) it was 2.96 μmole/g dry weight; in data set [2] (setting [8]) it was 3.25 μmole/g dry weight; in data set [2] (setting [9]) it was 1.88 μmole/g dry weight. The “metabolite content of lung tissue” value in data set [2] (setting [10]) was 4.78 μmole/g dry weight; in data set [2] (setting [11]) it was 1.91 μmole/g dry weight; in data set [2] (setting [12]), 3.28 μmole/g dry weight; in data set [2] (setting [13]), 1.82 μmole/g dry weight.

Turning to `NC(=O)CC[C@H](N)C(=O)O` [Total Gln, glutamine], the “metabolite content of lung tissue” value amounted to 7.68 μmole/g dry weight in data set [2] (setting [4]); 0.56 μmole/g dry weight in data set [2] (setting [5]); 1.02 μmole/g dry weight in data set [2] (setting [6]); 1.41 μmole/g dry weight in data set [2] (setting [7]); 1.32 μmole/g dry weight in data set [2] (setting [8]); 0.64 μmole/g dry weight in data set [2] (setting [9]). For the same compound, the “metabolite content of lung tissue” value in data set [2] (setting [10]) was determined as 2.71 μmole/g dry weight; in data set [2] (setting [11]) it was 0.74 μmole/g dry weight; in data set [2] (setting [12]), 2.99 μmole/g dry weight; in data set [2] (setting [13]), 0.79 μmole/g dry weight.
